Assays:
[1] = tested on: patients with systolic heart failure; details: cited from earlier work
[2] = In vitro stability in human plasma; format: in vitro ADME; details: pH 7.4, 37° C.; for half-life at 5 μM: male, read-out: T1/2 (minutes) Human
Description: (§1) Certain compounds from Table 1 were tested for their stability in plasma. The assay system comprised (i) PBS, or plasma from rat, dog or human (at least 3 donors, male, pooled) at pH 7.4, and (ii) for tests conducted in plasma, an anticoagulant (sodium heparin or sodium citrate). Each test compound (5 μM) was incubated in PBS or plasma at 37° C. on a THERMOMIXER® with shaking Three samples (n=3) were taken at each of seven sampling time points: 0, 10, 30, 60, 90, 180 and 360 minutes. The samples were immediately combined with 3 volumes (i.e., 3 times the volume of PBS or plasma) of acetonitrile containing 1% formic acid and an internal standard to terminate the reaction. AB SCIEX API 3000 LC-MS/MS analysis of the test compounds was performed without a standard curve. Half-lives (T1/2) of the test compounds were determined from graphs of the percent remaining values using the peak area response ratio.

[3] = In vitro stability in rat plasma; format: in vitro ADME; details: pH 7.4, 37° C.; for half-life at 5 μM: male, read-out: T1/2 (minutes) Rat
Description: as §1

[4] = In vitro stability in dog plasma; format: in vitro ADME; details: pH 7.4, 37° C.; for half-life at 5 μM: male, read-out: T1/2 (minutes) Dog
Description: as §1

Structure (SMILES) | melting point | half-life at 5 μM [2] | half-life at 5 μM [3] | half-life at 5 μM [4] | other results
CS(=O)(=O)c1ccccc1S(=O)(=O)NO [CXL-1020, N-hydroxy-2-methanesulfonylbenzene-1-sulfonamide] |  |  |  |  | side effects ([1]; at threshold doses needed to produce hemodynamic effects, intravenous): unacceptable levels of inflammatory irritation at and distal to the intravenous insertion site; hemodynamic effects ([1]; patients with systolic heart failure, intravenously as an aqueous solution at pH=4): reduced both left and right heart filling pressures and systemic vascular resistance, while increasing cardiac and stroke volume index
O=S(=O)(Cc1cccc(Cl)c1)NO [Compound 3, 1-(3-Chlorophenyl)-N-hydroxymethanesulfonamide] | 150 °C | 52 min | 40 min | 70 min | 
O=S(=O)(Cc1ccccc1Cl)NO [Compound 4, 1-(2-Chlorophenyl)-N-hydroxymethanesulfonamide] | 124 °C | 28 min | 38 min | 36 min | 
Cc1cccc(CS(=O)(=O)NO)c1 [Compound 5, N-Hydroxy-1-(3-methylphenyl)methanesulfonamide] | 98 °C | 81 min | 61 min | 55 min | 
O=S(=O)(Cc1ccc(F)cc1)NO [Compound 6, 1-(4-Fluorophenyl)-N-hydroxymethanesulfonamide] | 158 °C |  |  | 34 min | 
O=S(=O)(Cc1ccccc1C(F)(F)F)NO [Compound 7, N-Hydroxy-1-[2-(trifluoromethyl)phenyl]methanesulfonamide] | 123 °C |  |  | 25 min | 
O=S(=O)(Cc1ccc(F)cc1F)NO [Compound 8, 1-(2,4-Difluorophenyl)-N-hydroxymethanesulfonamide] | 166 °C | 31 min | 36 min | 46 min | 
O=S(=O)(Cc1cc(F)ccc1F)NO [Compound 9, 1-(2,5-Difluorophenyl)-N-hydroxymethanesulfonamide] | 125 °C |  |  | 30 min | 
O=S(=O)(Cc1cc(Cl)ccc1Cl)NO [Compound 10, 1-(2,5-Dichlorophenyl)-N-hydroxymethanesulfonamide] | 158 °C | 12 min | 12 min | 27 min | 
O=S(=O)(Cc1ccc(Cl)cc1Cl)NO [Compound 11, 1-(2,4-Dichlorophenyl)-N-hydroxymethanesulfonamide] | 158 °C |  |  | 45 min | 
O=S(=O)(Cc1ccc(Cl)c(Cl)c1)NO [Compound 12, 1-(3,4-Dichlorophenyl)-N-hydroxymethanesulfonamide] | 175 °C | 34 min | 54 min | 60 min | 
O=S(=O)(Cc1cccc(F)c1)NO [Compound 13, 1-(3-Fluorophenyl)-N-hydroxymethanesulfonamide] | 109 °C |  |  | 42 min | 
O=S(=O)(Cc1ccccc1F)NO [Compound 14, 1-(2-Fluorophenyl)-N-hydroxymethanesulfonamide] | 118 °C |  |  | 31 min | 
O=S(=O)(Cc1cccc(Br)c1)NO [Compound 15, 1-(3-Bromophenyl)-N-hydroxymethanesulfonamide] | 161 °C |  |  | 45 min | 
O=S(=O)(Cc1ccc(Br)cc1)NO [Compound 16, 1-(4-Bromophenyl)-N-hydroxymethanesulfonamide] | 160 °C |  |  | 42 min | 
O=S(=O)(Cc1cccc(C(F)(F)F)c1)NO [Compound 17, N-Hydroxy-1-[3-(trifluoromethyl)phenyl]methanesulfonamide] | 132 °C |  |  | 29 min | 
O=S(=O)(Cc1ccc(C(F)(F)F)cc1)NO [Compound 18, N-Hydroxy-1-[4-(trifluoromethyl)phenyl]methanesulfonamide] | 156 °C | 33 min | 42 min | 74 min | 
O=S(=O)(Cc1c(F)cccc1Cl)NO [Compound 19, 1-(2-Chloro-6-fluorophenyl)-N-hydroxymethanesulfonamide] | 127 °C |  |  |  | 
O=S(=O)(Cc1cc(F)cc(F)c1)NO [Compound 20, 1-(3,5-Difluorophenyl)-N-hydroxymethanesulfonamide] | 136 °C |  |  | 33 min | 
O=S(=O)(Cc1c(Cl)cccc1Cl)NO [Compound 21, 1-(2,6-Dichlorophenyl)-N-hydroxymethanesulfonamide] | 140 °C |  |  |  | 
O=S(=O)(Cc1noc2ccccc12)NO [Compound 22, 1-1,2-Benzoxazol-3-yl-N-hydroxymethanesulfonamide] | 143 °C | 25 min | 18 min | 21 min | 
O=S(=O)(Cc1ccc2oncc2c1)NO [Compound 26, 1-(Benzo[d]isoxazol-5-yl)-N-hydroxymethanesulfonamide] | 117 °C |  |  |  | 
CC(c1ccc(Cl)cc1)S(=O)(=O)NO (centres unmarked) [Compound 27, 1-(4-Chlorophenyl)-N-hydroxyethanesulfonamide] | 129 °C |  |  |  | 
CC(C)(c1ccc(Cl)cc1)S(=O)(=O)NO [Compound 28, 2-(4-Chlorophenyl)-N-hydroxypropane-2-sulfonamide] |  |  |  |  | T1/2 (minutes) Human ([2]; 5 μM): 37 min; T1/2 (minutes) Rat ([3]; 5 μM): 48 min; T1/2 (minutes) Dog ([4]; 5 μM): 26 min
O=S(=O)(NO)C1(c2ccc(Cl)cc2)CC1 [Compound 29, 1-(4-Chlorophenyl)-N-hydroxycyclopropane-1-sulfonamide] | 138 °C |  |  |  | 
